This is an account of results in patent publication US11476000B2, “Methods and systems using mathematical analysis and machine learning to diagnose disease” (Analytics For Life Inc., priority 2015, dated 2022).

Data set [1] deals with outbred pregnant Sprague-Dawley rats. The experiment in a line: Teratogenicity of maternal DMO administration in pregnant rats (CHD in progeny). It is filed as in vivo. The settings on record: rat pups after DMO exposure, natural delivery, echocardiography. The method, then:
(§1) To explore the potential deleterious long-term consequences of resolved CHDs, the exemplified rat model was developed that recapitulates many of the clinical presentations of CHD. To generate such a model, pregnant rats were treated with a chemical teratogen. […] Without wishing to be bound to particular theory, it is thought that DMO teratogenicity is mediated by oxidative stress which might be the result of the result of hypoxia reperfusion injury caused by bradycardias induced by disruption of calcium and potassium ion channels in embryonic myocytes. […] The administration of four 300 mg/kg doses every twelve hours beginning on the morning of gestation day (GD) 9 produces approximately a 50% incidence of CHD if fetuses are examined on GD 21, one day prior to natural parturition (see, e.g., Weston et al., “Co-variation in frequency and severity of cardiovascular and skeletal defects in Sprague-Dawley rats after maternal administration of dimethadione, the N-demethylated metabolite of trimethadione. Birth defects research Part B,” Developmental and reproductive toxicology, Vol. 92, Pages 206-15 (2011)). […] For example, in infants, approximately 80% of VSD resolves by one year of age, and in test rats after DMO exposure, about 80% of the VSD resolve spontaneously by weaning. […]

For data set [2], the system named is test rats exposed to DMO in-utero. The experiment in a line: Cardiovascular adaptation to pregnancy in rats exposed to DMO in utero. It is filed as in vivo, rat. Conditions: in-utero exposed rats with resolved CHD; altered CO, SV, strain, elevated mean arterial pressure. The method, then: as §1
Data set [3] deals with outbred pregnant Sprague-Dawley rats. The settings on record: four 300 mg/kg doses every twelve hours beginning morning of GD 9; fetuses examined on GD 21; cited from earlier work.
For data set [4] the following is noted: estimated; cited from earlier work.

Consider `CC1(C)OC(=O)NC1=O` [DMO, dimethadione], for which the “VSD that resolve spontaneously by weaning” value in data set [1] is “approximately 80%”. The “adaptation of the cardiovascular system to pregnancy” value in data set [2] is “adapted poorly to the burden of pregnancy”. In data set [3], the “incidence of CHD” value was about 50%.

In the case of `CN1C(=O)OC(C)(C)C1=O` [trimethadione], the “in utero exposures resulting in embryo/fetal loss, or malformations including a high incidence of CHD” value in data set [4] is recorded as 80%.
